Source: US10253007B2, “Taxanes compounds, preparation method therefor, and uses thereof” (Jiangsu Tasly Diyi Pharmaceutical Co., Ltd., priority 2013, dated 2019)

Experiments:
A375 melanoma = experiment: MTT assay, proliferation inhibition; format: cell-based; settings: Homo sapiens, A-375, read-out: Proliferation inhibition rate
Description: (§1) 1. Cytotoxicity Assay Using Human Tumor Cell Lines
(§2) Paclitaxel was used as the positive drug.

A2780 ovarian cancer = experiment: MTT assay, proliferation inhibition; format: cell-based; settings: Homo sapiens, read-out: Proliferation inhibition rate
Description: as §1, §2

B16 melanoma = experiment: MTT assay, proliferation inhibition; format: cell-based; settings: read-out: Proliferation inhibition rate
Description: as §1, §2

[1] = MTT assay, proliferation inhibition; format: cell-based; settings: Homo sapiens, LN-18 gastric cancer, read-out: Proliferation inhibition rate
Description: as §1, §2

DU145 prostate cancer = experiment: MTT assay, proliferation inhibition; format: cell-based; settings: Homo sapiens, DU-145, read-out: Proliferation inhibition rate
Description: as §1, §2

HeLa cervical cancer = experiment: MTT assay, proliferation inhibition; format: cell-based; settings: Homo sapiens, read-out: Proliferation inhibition rate
Description: as §1, §2

HL60 leukemia = experiment: MTT assay, proliferation inhibition; format: cell-based; settings: Homo sapiens, HL-60, read-out: Proliferation inhibition rate
Description: as §1, §2

HT29 colon cancer = experiment: MTT assay, proliferation inhibition; format: cell-based; settings: Homo sapiens, HT-29, read-out: Proliferation inhibition rate
Description: as §1, §2

K562 leukemia = experiment: MTT assay, proliferation inhibition; format: cell-based; settings: Homo sapiens, read-out: Proliferation inhibition rate
Description: as §1, §2

BGC-823 gastric cancer = experiment: MTT assay, proliferation inhibition; format: cell-based; settings: Homo sapiens, read-out: Proliferation inhibition rate
Description: as §1, §2

HCT 116 colon cancer = experiment: MTT assay, proliferation inhibition; format: cell-based; settings: Homo sapiens, read-out: Proliferation inhibition rate
Description: as §1, §2

[2] = test system: A549 non-small cell lung cancer; experiment: MTT assay, proliferation inhibition; format: cell-based; settings: Homo sapiens, read-out: Proliferation inhibition rate
Description: as §1, §2

MDA-MB-436 breast cancer = experiment: MTT assay, proliferation inhibition; format: cell-based; settings: Homo sapiens, read-out: Proliferation inhibition rate
Description: as §1, §2

[3] = test system: NCI-H460 non-small cell lung cancer; experiment: MTT assay, proliferation inhibition; format: cell-based; settings: Homo sapiens, read-out: Proliferation inhibition rate
Description: as §1, §2

LNCaP prostate cancer = experiment: MTT assay, proliferation inhibition; format: cell-based; settings: Homo sapiens, read-out: Proliferation inhibition rate
Description: as §1, §2

MCF-7 breast cancer = experiment: MTT assay, proliferation inhibition; format: cell-based; settings: Homo sapiens, MCF7, read-out: Proliferation inhibition rate
Description: as §1, §2

[4] = Caco-2 cell monolayer membrane transport assay; settings: human, A-B; for Papp A→B: Caco-2, Papp A-B; for recovery: Caco-2, Recovery rate in mass
Description: Caco-2 Cell Monolayer Membrane Transport Assay
Human-derived colorectal adenocarcinoma cell line Caco-2 cell monolayer model was used to study the bidirectional transport of the target compounds from the apical (AP) side to the basolateral (BL) side and from BL side to AP side. HPLC was used for quantitative analysis to calculate transport parameters, apparent permeability coefficient (Papp) and the efflux ratio.

[5] = Mean, Caco-2, mean of two samples

Row | SMILES | inhibition at 1 µM (A375 melanoma) [%] | inhibition at 1 µM (A2780 ovarian cancer) [%] | inhibition at 1 µM (B16 melanoma) [%] | inhibition at 1 µM [1] [%] | inhibition at 1 µM (DU145 prostate cancer) [%] | inhibition at 1 µM (HeLa cervical cancer) [%] | inhibition at 1 µM (HL60 leukemia) [%] | inhibition at 1 µM (HT29 colon cancer) [%] | inhibition at 1 µM (K562 leukemia) [%] | inhibition at 1 µM (BGC-823 gastric cancer) [%] | inhibition at 1 µM (HCT 116 colon cancer) [%] | inhibition at 1 µM [2] [%] | inhibition at 1 µM (MDA-MB-436 breast cancer) [%] | inhibition at 1 µM [3] [%] | inhibition at 1 µM (LNCaP prostate cancer) [%] | inhibition at 1 µM (MCF-7 breast cancer) [%] | Papp A→B ([4]; Sample-01, Caco-2, Sample-01) [×10⁻⁶ cm/s] | Papp A→B ([4]; Sample-02, Caco-2, Sample-02) [×10⁻⁶ cm/s] | recovery [4, 5] [%] | recovery ([4]; Sample-01, Caco-2, Sample-01) [%] | also measured
1 | COC(=O)O[C@H]1C(=O)[C@]2(C)[C@@H](OC)C[C@H]3OC[C@@]3(OC(C)=O)[C@H]2[C@H](OC(=O)c2ccccc2)[C@]2(O)C[C@H](OC(=O)[C@H](O)[C@@H](NC(=O)N(C)C)c3ccccc3)C(C)=C1C2(C)C [PCMI-29] | 92.8 | 92.5 | 80.6 | 97.7 | 86.7 | 97.3 | 96.8 | 81.7 | 90.8 | 90.8 | 68.7 | 78.1 | 75.7 | 85.2 | 84.3 | 91.3 | 9.53 | 7.33 | 99.4 | 102 | Papp A→B [4, 5]: 8.43 ×10⁻⁶ cm/s; recovery ([4]; Sample-02, Caco-2, Sample-02): 97%
2 | CO[C@H]1C[C@H]2OC[C@@]2(OC(C)=O)[C@H]2[C@H](OC(=O)c3ccccc3)[C@]3(O)C[C@H](OC(=O)[C@H](O)[C@@H](NC(=O)c4ccccc4)c4ccccc4)C(C)=C([C@@H](OC(=O)N(C)C)C(=O)[C@]12C)C3(C)C [PCMI-23] | 87.7 | 94.8 | 80.8 | 96.3 | 84.8 | 99.8 | 97.2 | 87.9 | 93.8 | 94.5 | 78.3 | 77.8 | 84.8 | 83.3 | 81.8 | 93.5 | 3.21 | 2.68 | 87.1 | 100 | recovery ([4]; Sample-02, Caco-2, Sample-02): 74%
3 | CCSC(=O)O[C@H]1C(=O)[C@]2(C)[C@@H](OC)C[C@H]3OC[C@@]3(OC(C)=O)[C@H]2[C@H](OC(=O)c2ccccc2)[C@]2(O)C[C@H](OC(=O)[C@H](O)[C@@H](NC(=O)OC(C)(C)C)c3ccccc3)C(C)=C1C2(C)C [PCMI-30] | 96.9 | 95.6 | 81.7 | 95 | 90.3 | 101 | 98.5 | 87.8 | 92.6 | 94.9 | 65.5 | 75.8 | 81.3 | 85.8 | 86.2 | 95.8 | 5.78 | 3.59 | 76.5 | 70.4 | Papp A→B [4, 5]: 4.68 ×10⁻⁶ cm/s; recovery ([4]; Sample-02, Caco-2, Sample-02): 82.6%
4 | CO[C@H]1C[C@H]2OC[C@@]2(OC(C)=O)[C@H]2[C@H](OC(=O)c3ccccc3)[C@]3(O)C[C@H](OC(=O)[C@H](O)[C@@H](NC(=O)OC(C)(C)C)c4ccccn4)C(C)=C([C@@H](OC(=O)N(C)C)C(=O)[C@]12C)C3(C)C [PCMI-24] | 86.8 | 95.5 | 78.9 | 94 | 84.7 | 100 | 98.1 | 88.1 | 92.2 | 93.5 | 81.1 | 73.8 | 76.3 | 83.6 | 81.1 | 82.3 | 2.93 | 3.1 | 100 | 106 | recovery ([4]; Sample-02, Caco-2, Sample-02): 94.8%
5 | COC(=O)O[C@H]1C[C@H]2OC[C@@]2(OC(C)=O)[C@H]2[C@H](OC(=O)c3ccccc3)[C@]3(O)C[C@H](OC(=O)[C@H](O)[C@@H](NC(=O)c4ccccc4)c4ccccc4)C(C)=C([C@@H](OC)C(=O)[C@]12C)C3(C)C [PCMI-37] | 97.4 | 96.4 | 85.3 | 98.3 | 88.5 | 102 | 97 | 89.7 | 94.5 | 95.7 | 67.4 | 80 | 86.1 | 89.5 | 85.5 | 103 | 3.23 | 3.41 | 80.6 | 81.2 | recovery ([4]; Sample-02, Caco-2, Sample-02): 80%
6 | COC(=O)O[C@H]1C[C@H]2OC[C@@]2(OC(C)=O)[C@H]2[C@H](OC(=O)c3ccccc3)[C@]3(O)C[C@H](OC(=O)[C@H](O)[C@@H](NC(=O)OC(C)(C)C)c4ccccn4)C(C)=C([C@@H](OC)C(=O)[C@]12C)C3(C)C [PCMI-38] | 88.3 | 96.5 | 83.3 | 96.6 | 89.2 | 102 | 97.4 | 89.8 | 94.7 | 95.7 | 64 | 80.3 | 85.9 | 88.7 | 82.4 | 106 | 4.71 | 4.35 | 121 | 122 | recovery ([4]; Sample-02, Caco-2, Sample-02): 120%
7 | COC(=O)O[C@H]1C(=O)[C@]2(C)[C@@H](OC)C[C@H]3OC[C@@]3(OC(C)=O)[C@H]2[C@H](OC(=O)c2ccccc2)[C@]2(O)C[C@H](OC(=O)[C@H](O)[C@@H](NC(=O)c3ccccc3)c3ccccc3)C(C)=C1C2(C)C [PCMI-27] | 103 | 94.1 | 79.2 | 96.3 | 83.3 | 99.5 | 97.4 | 87.3 | 94.5 | 94.1 | 78.3 | 74.8 | 83.3 | 80.4 | 82.6 | 95.3 | 4.44 | 4.31 | 95.6 | 99.3 | recovery ([4]; Sample-02, Caco-2, Sample-02): 91.9%
